pIC50: −log10 of the molar value.
Molecular target: Serine/threonine-protein kinase Chk2 (Homo sapiens, UniProt O96017)
Assay: Inhibition of recombinant human Chk2 kinase

Chain of Serine/threonine-protein kinase Chk2 (O96017 whole entry): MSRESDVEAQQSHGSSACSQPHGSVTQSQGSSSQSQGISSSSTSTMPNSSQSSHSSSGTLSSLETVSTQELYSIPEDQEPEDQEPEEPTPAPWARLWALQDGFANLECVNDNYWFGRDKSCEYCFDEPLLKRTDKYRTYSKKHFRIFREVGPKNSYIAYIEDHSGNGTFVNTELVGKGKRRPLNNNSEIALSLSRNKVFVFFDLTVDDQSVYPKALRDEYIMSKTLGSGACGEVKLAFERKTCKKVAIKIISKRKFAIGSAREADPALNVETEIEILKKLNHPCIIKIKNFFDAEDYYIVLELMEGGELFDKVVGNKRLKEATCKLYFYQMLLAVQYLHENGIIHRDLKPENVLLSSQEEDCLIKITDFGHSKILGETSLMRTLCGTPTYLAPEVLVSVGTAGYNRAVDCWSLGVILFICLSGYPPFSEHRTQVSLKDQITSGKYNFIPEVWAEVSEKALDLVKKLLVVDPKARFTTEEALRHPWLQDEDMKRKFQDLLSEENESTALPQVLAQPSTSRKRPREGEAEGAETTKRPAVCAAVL

Compound: CN(C)C(=O)c1ccc2[nH]c(-c3ccc(Oc4ccccc4)cc3)nc2c1
- pIC50: < 5.00

Compound: NC(=O)c1ccc2nc(-c3ccc(C(=O)Nc4ccc(Cl)c(Cl)c4)cc3)[nH]c2c1
- pIC50: < 5.00

From ChEMBL document CHEMBL1145198, “Checkpoint kinase inhibitors: SAR and radioprotective properties of a series of 2-arylbenzimidazoles” (J Med Chem, 2005)
